Data reported in patent US20110020366A1, “USE OF BENZOPHENONE DERIVATIVE OR SALT THEREOF AND TNF ALPHA INHIBITOR IN COMBINATION AND PHARMACEUTICAL COMPOSITION CONTAINING THE DERIVATIVE OR SALT THEREOF AND THE INHIBITOR” (TOYAMA CHEMICAL CO., LTD., priority 2008, published 2011).

System: Mouse Type II Collagen-Induced Arthritis
Assay: Mouse type II collagen-induced arthritis, arthritis score / inhibition rate
Format: in vivo
Settings: compound A 30 mg/kg orally once a day for 10 days; DBA/1 J mice; day following the final administration
Procedure: Eight-week-old male DBA/1 J mice (9 or 10 mice per group; Charles River Laboratories Japan) were used. A 2 mg/mL bovine type II collagen dissolved in a 0.1 mol/L acetic acid solution (Koken Co., Ltd.) was mixed with an equal volume of Freund's complete adjuvant (BD Diagnostic Systems) to prepare an emulsion. The emulsion (0.2 mL) was intradermally injected into the hip of each mouse. Twenty-one days after the primary immunization, the same treatment was carried out (secondary sensitization), so that type II collagen arthritis was induced.
Compound A was dissolved in a 2-fold molar amount of sodium hydroxide solution, and a 3-fold weight of polyvinylpyrrolidone was then added to the solution, followed by dilution with distilled water. The concentration of compound A in a compound A (30 mg/kg)-dosing solution was adjusted to be 3 mg/mL. The concentration of compound A in compound A (3 mg/kg)-dosing solution for combined administration was adjusted to be 0.3 mg/mL. Each dosing solution was orally administered to the mice.
The anti-TNFα antibody was dissolved in phosphate buffered saline. The concentration of the anti-TNFα antibody in the anti-TNFα antibody (250 μg/mouse)-dosing solution was adjusted to be 1.25 mg/mL. […]
The knuckle portion and the articulations of wrist and tarsus portions of the four paws of each mouse were evaluated using the following 4 scores. […]

O=C(O)CCc1cc(C(=O)c2ccc(OC3CCCC3)cc2O)ccc1OCc1ccc2c(O)noc2c1 [Compound A, 3-(5-(4-(cyclopentyloxy)-2-hydroxybenzoyl)-2-((3-hydroxy-1,2-benzisoxazol-6-yl)methoxy)phenyl)propionic acid]
Arthritis inhibition rate (%): 23%
